What was measured:
[1] = tested on: human colon cancer cell line (HCT116); assay: Anti-tumor effect on subcutaneous transplant model of HCT116; assay type: in vivo, nude mouse; details: 6.25-200 mg/kg orally twice a day for 14 days
Protocol: (§1) Human non-small-cell lung cancer cell line PC9 (obtained from Immuno-Biological laboratories Co., Ltd.), human non-small-cell lung cancer cell line A549 (obtained from Dainippon Pharmaceutical), human colon cancer cell line WiDr (obtained from Dainippon Pharmaceutical) and human colon cancer cell line HCT116 (obtained from ATCC) were cultured in RPMI1640 (containing 10% FBS) in a 5% carbon dioxide incubator at 37° C. to about 80% confluence, and the cells were collected with trypsin-EDTA. Using a phosphate buffer for PC9, WiDr and HCT116 and a 50% matrigel-containing phosphate buffer for A549, 5×10^7 cells/mL suspensions were prepared, respectively. Then, 0.1 mL each of the resulting cell suspensions was subcutaneously transplanted to the side of a nude mouse.
(§2) For PC9, 8 days after the transplantation, E7820 was orally administered for 50 mg/kg, 100 mg/kg or 200 mg/kg twice a day for 14 days. For A549, 24 days after the transplantation, E7820 was orally administered for 50 mg/kg or 200 mg/kg twice a day for 7 days. For WiDr, 11 days after the transplantation, E7820 was orally administered for 50 mg/kg, 100 mg/kg or 200 mg/kg twice a day for 14 days. […]
(§3) The major and minor axes of tumors were measured with Digimatic caliper (Mitsutoyo), and tumor volumes and relative tumor volumes were calculated according to the following formulae. […]

EGFR1 [2] = assay: EGFR1 expression level in HCT116 subcutaneous transplant model (western blotting); assay type: in vivo, nude mouse; details: for EGFR1 expression level (% of control) HCT116: HCT116 tumor in nude mouse
Protocol: HCT116 or WiDr was cultured in RPMI1640 (containing 10% FBS) in a 5% carbon dioxide incubator to about 80% confluence. The cells were collected with trypsin-EDTA according to a routine procedure and 5×10^7 cells/mL suspensions were prepared with a phosphate buffer. Then, 0.1 mL each of the resulting suspension was subcutaneously transplanted to the side of a nude mouse.
For HCT116, 23 days after the transplantation, E7820 was orally administered for 12.5 mg/kg, 50 mg/kg or 200 mg/kg twice a day for 3 days. On the other hand, for WiDr, 18 days after the transplantation, E7820 was orally administered for 50 mg/kg or 200 mg/kg twice a day for 7 days. Four days after the start of administration for HCT116 and 8 days after the start of administration for WiDr, tumors were removed to prepare tumor cell lysates with various protease inhibitors and a cell lysis solution containing 10% glycerol and 1% Triton X-100 in ice. For each tumor cell lysate, an equal amount of protein was fractionated by SDS-PAGE and transferred onto a nitrocellulose membrane (Hybond ECL, Amersham Biosciences). Then, western blotting was performed by using an anti-EGFR1 antibody (Santa Cruz Biotechnology) and horse radish peroxidase-labeled anti-mouse IgG antibody (secondary antibody) (Cell Signaling) according to a routine procedure.
Detection and quantification of each band were carried out as follows. First, each band was forced to chemically develop a color with Chemiluminescent Substrate (PIERCE), which was then captured as a digital image with Image Master VDS-CL (Amersham Pharmacia Biotech, Tokyo). The digital images were saved as TIF files and numerically converted with Image Master total Lab (version 1.00, Amersham Pharmacia Biotech, Tokyo).

[3] = tested on: human colon cancer cell line (WiDr); assay: Anti-tumor effect on subcutaneous transplant model of WiDr; assay type: in vivo, nude mouse; details: WiDr subcutaneous transplant, 50, 100 or 200 mg/kg orally twice a day for 14 days
Protocol: as §1, §2, §3

EGFR1 [4] = assay: EGFR1 expression level in cultured A549 (flow cytometry); assay type: cell-based, human; details: for EGFR1 expression level (% of control) A549: two days of culture, flow cytometry
Protocol: PC9 or A549 was suspended in RPMI1640 (containing 10% FBS) to 1×10^5 cells/ml. Then, 1 ml each of these suspensions was placed into each well of a 6-well plate and cultured in a 5% carbon dioxide incubator at 37° C. On the following day, 1 ml each of E7820 culture dilutions at respective concentrations (0-20 μM) was added to the cells in each well for further culture. After two days of culture, the cells were collected with trypsin-EDTA according to a routine procedure, which were suspended in PBS containing 0.5% BSA. Subsequently, an anti-EGFR1 antibody (BD Biosciences) was added to these suspensions and incubated at 4° C. for 30 minutes. Centrifugation and washing with PBS were carried out according to routine procedures to remove an excessive amount of the antibody. Then, an RPE-labeled anti-mouse IgG antibody was added to these suspensions and incubated at 4° C. for 30 minutes. Centrifugation and washing with PBS were carried out according to routine procedures to remove an excessive amount of the antibody. Finally, the EGFR1 expression level in PC9 and A549 were determined with FACSCalibur (Japan Becton, Dickinson and Company).

Cc1ccc(NS(=O)(=O)c2cccc(C#N)c2)c2[nH]cc(C#N)c12 [E7820, N-(3-cyano-4-methyl-1H-indole-7-yl)-3-cyanobenzenesulfonamide]
Anti-tumor effect (relative tumor volume) [1]: stronger anti-tumor effects
Effect on EGFR1 expression level (in words) (EGFR1 [2]; HCT116 transplanted tumors, dose-dependent): decreased the EGFR1 expression level
EGFR1 expression level (% of control) HCT116 (EGFR1 [2]; 12.5 mg/kg orally twice a day for 3 days): 37 % of control
EGFR1 expression level (% of control) HCT116 (EGFR1 [2]; 50 mg/kg orally twice a day for 3 days): 47 % of control
EGFR1 expression level (% of control) HCT116 (EGFR1 [2]; 200 mg/kg orally twice a day for 3 days): 42 % of control
Anti-tumor effect (relative tumor volume) [3]: showed anti-tumor effects
EGFR1 expression level (% of control) A549 (EGFR1 [4]; A549, E7820 0.01 μM): 93 % of control
EGFR1 expression level (% of control) A549 (EGFR1 [4]; A549, E7820 0.03 μM): 97 % of control
EGFR1 expression level (% of control) A549 (EGFR1 [4]; A549, E7820 0.1 μM): 95 % of control
EGFR1 expression level (% of control) A549 (EGFR1 [4]; A549, E7820 0.3 μM): 91 % of control
EGFR1 expression level (% of control) A549 (EGFR1 [4]; A549, E7820 1 μM): 80 % of control
EGFR1 expression level (% of control) A549 (EGFR1 [4]; A549, E7820 3 μM): 64 % of control
EGFR1 expression level (% of control) A549 (EGFR1 [4]; A549, E7820 10 μM): 73 % of control
Effect on EGFR1 expression level (in words) (EGFR1 [4]; cultured A549, flow cytometry): slightly decreased the EGFR1 expression level

Reference: patent publication US20100291592A1, “NOVEL MARKER FOR SENSITIVITY AGAINST SULFONAMIDE COMPOUND” (priority 2006, published 2010)
